Measurements as given in PubChem BioAssay (NCI).
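Assay format: 96-well plates, 48-hour exposure. GI50: concentration for 50% inhibition of growth. TGI: concentration producing complete growth inhibition.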

What was measured:
Experiment in all cases: inhibition of tumour cell growth, NCI panel, 48 h
UACC-62 melanoma = tested on: UACC-62 melanoma
M14 melanoma = tested on: M14 melanoma
PC-3 prostate = tested on: PC-3 prostate
NCI-H226 lung = tested on: NCI-H226 lung
SNB-75 CNS = tested on: SNB-75 CNS
SK-MEL-28 melanoma = tested on: SK-MEL-28 melanoma
KM12 colon = tested on: KM12 colon
SR leukemia = tested on: SR leukemia
HOP-92 NSCLC = tested on: HOP-92 NSCLC
CAKI-1 renal = tested on: CAKI-1 renal

Row | SMILES | TGI (UACC-62 melanoma) [µM] | TGI (M14 melanoma) [µM] | TGI (PC-3 prostate) [µM] | TGI (NCI-H226 lung) [µM] | TGI (SNB-75 CNS) [µM] | TGI (SK-MEL-28 melanoma) [µM] | TGI (KM12 colon) [µM] | TGI (SR leukemia) [µM] | TGI (HOP-92 NSCLC) [µM] | TGI (CAKI-1 renal) [µM] | GI50 (UACC-62 melanoma) [µM] | GI50 (M14 melanoma) [µM] | GI50 (PC-3 prostate) [µM] | GI50 (NCI-H226 lung) [µM] | GI50 (SNB-75 CNS) [µM] | GI50 (SK-MEL-28 melanoma) [µM] | GI50 (KM12 colon) [µM] | GI50 (SR leukemia) [µM] | GI50 (HOP-92 NSCLC) [µM] | GI50 (CAKI-1 renal) [µM]
1 | COc1ccc(OC)c(/C=C/c2ccnc3ccccc23)c1 | 7.59 | 17.8 | 6.76 | 4.74 | 0.977 | 20.5 | 11.5 | 8.07 | 18.1 | 18.1 |  |  |  |  |  |  |  |  |  | 
2 | COc1cc(C2CC(=O)Nc3c2c(C)nn3-c2nc3ccccc3[nH]2)cc(OC)c1O (stereo not given) | 4.9 | 5.53 | 38.8 | 7.16 | 5.13 | 6.58 | 12.4 | 14.5 | 8.81 | 5.44 | 2.06 | 2.12 | 3.49 | 2.46 | 1.85 | 2.4 | 3.26 | 3.35 | 2.8 | 2.36
3 | C/C=C(\C)C(=O)O[C@H]1C=CC(=O)O[C@H]1COC(=O)[C@H](C)O | 21 | 23.1 | 28.9 | 31.5 | 20.9 | 11.5 | 27 | 13.4 | 21.1 | 14.9 | 7.71 | 7.51 | 11 | 12.4 | 6.95 | 3.53 | 8.81 | 2.2 | 7.6 | 5.46
4 | Cc1ccsc1-c1ccc2c(c1)COC2(CCCN(C)C)c1ccc(F)cc1 (stereo not given) | 4.04 | 3.46 | 13.2 | 25.3 | 6.82 | 3.33 | 10.9 | 7.3 | 7.44 | 6.05 | 1.89 | 1.73 | 3.28 | 8.59 | 1.72 | 1.76 | 3.13 | 2.29 | 1.76 | 2.19
5 | O=S(=O)(NCCCNc1cc(-c2cn(-c3ccccc3)nc2-c2cccc(O)c2)ccn1)c1ccc(Br)cc1 | 3.59 | 3.78 | 7.83 | 8.66 | 7.81 | 4.31 | 3.94 | 5.49 | 7.55 | 12.6 | 1.57 | 1.78 | 2.11 | 2.32 | 1.22 | 1.97 | 1.65 | 1.51 | 1.83 | 2.25
6 | CN(C)CCOc1ccccc1NC1=C(Cl)C(=O)C(Nc2ccccc2OCCN(C)C)=C(Cl)C1=O | > 49.3 | > 84.6 | > 31.8 | > 57.9 | > 82.1 | > 100 | > 100 | > 100 | 3.07 | 2.36 | > 34.1 | > 27 | 9.84 | 23.6 | > 39.4 | > 95 | 20.9 | 5.12 | 1.45 | 1.14
7 | O=[N+]([O-])c1ccc2c(c1)C(c1ccccc1Cl)=Nc1c(n[nH]c1-c1cccnc1)N2 | > 25 | > 25 | > 25 | > 25 | > 25 | > 25 | > 25 | > 25 | > 25 | > 25 | > 25 | > 25 | > 25 | > 25 | > 10.1 | > 25 | 9.41 | > 25 | > 25 | > 25
8 | CN(C)C=Nc1c(I)cc(I)c(CCC(=O)O)c1I | > 100 | > 100 | > 100 | > 100 | > 100 | > 100 | > 100 | > 100 | > 100 | > 100 | > 100 | > 100 | 91.5 | > 100 | > 100 | > 100 | > 100 | > 100 | 45.4 | > 100
9 | CN1C(=O)C2(c3ccccc31)C1CC3C(CO1)C1C2C3(CO)CN1C#N (stereo not given) | > 100 | > 100 | > 100 | > 100 | > 100 | > 100 | > 100 | > 100 | > 100 | > 100 |  |  |  |  |  |  |  |  |  | 
10 | CCOC(=O)c1cc(NS(=O)(=O)c2ccc(C)cc2)cc(C(=O)OCC)c1 | > 100 | > 100 | > 100 | > 100 | 68.9 | 93.5 | > 100 | > 100 | > 100 | > 100 | 44.2 | 52.5 | 47.7 | 54 | 23.1 | 27 | 55.9 | 34.4 | 32 | 43.5
11 | COc1ccc(-c2cn(-c3cc(OC)c(OC)c(OC)c3)c(=O)[nH]2)cc1OC | > 100 | > 100 | > 100 | > 100 | > 100 | > 100 | > 100 | > 100 | > 100 | > 100 | > 100 | > 100 | > 100 | > 100 | 71.7 | > 100 | > 100 | > 100 | > 100 | > 100
